# Test results from ChEMBL document CHEMBL5038625, “Application of the dual-tail approach for the design and synthesis of novel Thiopyrimidine-Benzenesulfonamide hybrids as selective carbonic anhydrase inhibitors” (Eur J Med Chem, 2022).
# Columns and labels:
# Carbonic anhydrase 9 = Carbonic anhydrase 9 (Homo sapiens, UniProt Q16790); experiment: Inhibition of human CA9 preincubated for 15 mins by phenol red dye based stopped flow CO2 hydration assay
# SF-539 = experiment: Antiproliferative activity against human SF-539 cells assessed as cell growth inhibition at 10 uM incubated for 24 hrs by sulforhodamine B assay; type: functional; conditions: read-out: GI
# CCRF-CEM = experiment: Antiproliferative activity against human CCRF-CEM cells assessed as cell growth inhibition at 10 uM incubated for 24 hrs by sulforhodamine B assay; type: functional; conditions: read-out: GI
# HL-60 = experiment: Antiproliferative activity against human HL-60 cells assessed as cell growth inhibition at 10 uM incubated for 24 hrs by sulforhodamine B assay; type: functional; conditions: read-out: GI
# K562 = experiment: Antiproliferative activity against human K562 cells assessed as cell growth inhibition at 10 uM incubated for 24 hrs by sulforhodamine B assay; type: functional; conditions: read-out: GI
# MOLT-4 = experiment: Antiproliferative activity against human MOLT-4 cells assessed as cell growth inhibition at 10 uM incubated for 24 hrs by sulforhodamine B assay; type: functional; conditions: read-out: GI
# RPMI-8226 = experiment: Antiproliferative activity against human RPMI-8226 cells assessed as cell growth inhibition at 10 uM incubated for 24 hrs by sulforhodamine B assay; type: functional; conditions: read-out: GI
# SR = experiment: Antiproliferative activity against human SR cells assessed as cell growth inhibition at 10 uM incubated for 24 hrs by sulforhodamine B assay; type: functional; conditions: read-out: GI
# A549 = experiment: Antiproliferative activity against human A549 cells assessed as cell growth inhibition at 10 uM incubated for 24 hrs by sulforhodamine B assay; type: functional; conditions: read-out: GI
# EKVX = experiment: Antiproliferative activity against human EKVX cells assessed as cell growth inhibition at 10 uM incubated for 24 hrs by sulforhodamine B assay; type: functional; conditions: read-out: GI
# NCI-H226 = experiment: Antiproliferative activity against human NCI-H226 cells assessed as cell growth inhibition at 10 uM incubated for 24 hrs by sulforhodamine B assay; type: functional; conditions: read-out: GI
# NCI-H23 = experiment: Antiproliferative activity against human NCI-H23 cells assessed as cell growth inhibition at 10 uM incubated for 24 hrs by sulforhodamine B assay; type: functional; conditions: read-out: GI
# [1] = Antiproliferative activity against human […] cells assessed as cell growth inhibition at 10 uM incubated for 24 hrs by sulforhodamine B assay; type: functional; conditions: read-out: GI
# NCI-H460 = experiment: Antiproliferative activity against human NCI-H460 cells assessed as cell growth inhibition at 10 uM incubated for 24 hrs by sulforhodamine B assay; type: functional; conditions: read-out: GI
# NCI-H522 = experiment: Antiproliferative activity against human NCI-H522 cells assessed as cell growth inhibition at 10 uM incubated for 24 hrs by sulforhodamine B assay; type: functional; conditions: read-out: GI
# COLO 205 = experiment: Antiproliferative activity against human COLO 205 cells assessed as cell growth inhibition at 10 uM incubated for 24 hrs by sulforhodamine B assay; type: functional; conditions: read-out: GI
# HCT-116 = experiment: Antiproliferative activity against human HCT-116 cells assessed as cell growth inhibition at 10 uM incubated for 24 hrs by sulforhodamine B assay; type: functional; conditions: read-out: GI
# HCT-15 = experiment: Antiproliferative activity against human HCT-15 cells assessed as cell growth inhibition at 10 uM incubated for 24 hrs by sulforhodamine B assay; type: functional; conditions: read-out: GI
# HT-29 = experiment: Antiproliferative activity against human HT-29 cells assessed as cell growth inhibition at 10 uM incubated for 24 hrs by sulforhodamine B assay; type: functional; conditions: read-out: GI
# KM12 = experiment: Antiproliferative activity against human KM12 cells assessed as cell growth inhibition at 10 uM incubated for 24 hrs by sulforhodamine B assay; type: functional; conditions: read-out: GI
# SW-620 = experiment: Antiproliferative activity against human SW-620 cells assessed as cell growth inhibition at 10 uM incubated for 24 hrs by sulforhodamine B assay; type: functional; conditions: read-out: GI
# SF-268 = experiment: Antiproliferative activity against human SF-268 cells assessed as cell growth inhibition at 10 uM incubated for 24 hrs by sulforhodamine B assay; type: functional; conditions: read-out: GI
# SF-295 = experiment: Antiproliferative activity against human SF-295 cells assessed as cell growth inhibition at 10 uM incubated for 24 hrs by sulforhodamine B assay; type: functional; conditions: read-out: GI
# SNB-19 = experiment: Antiproliferative activity against human SNB-19 cells assessed as cell growth inhibition at 10 uM incubated for 24 hrs by sulforhodamine B assay; type: functional; conditions: read-out: GI
# SNB-75 = experiment: Antiproliferative activity against human SNB-75 cells assessed as cell growth inhibition at 10 uM incubated for 24 hrs by sulforhodamine B assay; type: functional; conditions: read-out: GI
# U-251 = experiment: Antiproliferative activity against human U-251 cells assessed as cell growth inhibition at 10 uM incubated for 24 hrs by sulforhodamine B assay; type: functional; conditions: read-out: GI
# LOX IMVI = experiment: Antiproliferative activity against human LOX IMVI cells assessed as cell growth inhibition at 10 uM incubated for 24 hrs by sulforhodamine B assay; type: functional; conditions: read-out: GI
# M14 = experiment: Antiproliferative activity against human M14 cells assessed as cell growth inhibition at 10 uM incubated for 24 hrs by sulforhodamine B assay; type: functional; conditions: read-out: GI
# MDA-MB-435 = experiment: Antiproliferative activity against human MDA-MB-435 cells assessed as cell growth inhibition at 10 uM incubated for 24 hrs by sulforhodamine B assay; type: functional; conditions: read-out: GI
# SK-MEL-5 = experiment: Antiproliferative activity against human SK-MEL-5 cells assessed as cell growth inhibition at 10 uM incubated for 24 hrs by sulforhodamine B assay; type: functional; conditions: read-out: GI
# UACC-62 = experiment: Antiproliferative activity against human UACC-62 cells assessed as cell growth inhibition at 10 uM incubated for 24 hrs by sulforhodamine B assay; type: functional; conditions: read-out: GI
# IGROV-1 = experiment: Antiproliferative activity against human IGROV-1 cells assessed as cell growth inhibition at 10 uM incubated for 24 hrs by sulforhodamine B assay; type: functional; conditions: read-out: GI
# OVCAR-3 = experiment: Antiproliferative activity against human OVCAR-3 cells assessed as cell growth inhibition at 10 uM incubated for 24 hrs by sulforhodamine B assay; type: functional; conditions: read-out: GI
# OVCAR-4 = experiment: Antiproliferative activity against human OVCAR-4 cells assessed as cell growth inhibition at 10 uM incubated for 24 hrs by sulforhodamine B assay; type: functional; conditions: read-out: GI
# OVCAR-8 = experiment: Antiproliferative activity against human OVCAR-8 cells assessed as cell growth inhibition at 10 uM incubated for 24 hrs by sulforhodamine B assay; type: functional; conditions: read-out: GI
# NCI/ADR-RES = experiment: Antiproliferative activity against human NCI-ADR-RES cells assessed as cell growth inhibition at 10 uM incubated for 24 hrs by sulforhodamine B assay; type: functional; conditions: read-out: GI
# A498 = experiment: Antiproliferative activity against human A498 cells assessed as cell growth inhibition at 10 uM incubated for 24 hrs by sulforhodamine B assay; type: functional; conditions: read-out: GI
# ACHN = experiment: Antiproliferative activity against human ACHN cells assessed as cell growth inhibition at 10 uM incubated for 24 hrs by sulforhodamine B assay; type: functional; conditions: read-out: GI
# CAKI-1 = experiment: Antiproliferative activity against human CAKI-1 cells assessed as cell growth inhibition at 10 uM incubated for 24 hrs by sulforhodamine B assay; type: functional; conditions: read-out: GI
# RXF 393 = experiment: Antiproliferative activity against human RXF 393 cells assessed as cell growth inhibition at 10 uM incubated for 24 hrs by sulforhodamine B assay; type: functional; conditions: read-out: GI
# SN12C = experiment: Antiproliferative activity against human SN12C cells assessed as cell growth inhibition at 10 uM incubated for 24 hrs by sulforhodamine B assay; type: functional; conditions: read-out: GI
# UO-31 = experiment: Antiproliferative activity against human UO-31 cells assessed as cell growth inhibition at 10 uM incubated for 24 hrs by sulforhodamine B assay; type: functional; conditions: read-out: GI
# PC-3 = experiment: Antiproliferative activity against human PC-3 cells assessed as cell growth inhibition at 10 uM incubated for 24 hrs by sulforhodamine B assay; type: functional; conditions: read-out: GI
# DU-145 = experiment: Antiproliferative activity against human DU-145 cells assessed as cell growth inhibition at 10 uM incubated for 24 hrs by sulforhodamine B assay; type: functional; conditions: read-out: GI
# MCF7 = experiment: Antiproliferative activity against human MCF7 cells assessed as cell growth inhibition at 10 uM incubated for 24 hrs by sulforhodamine B assay; type: functional; conditions: read-out: GI
# Hs-578T = experiment: Antiproliferative activity against human HS-578T cells assessed as cell growth inhibition at 10 uM incubated for 24 hrs by sulforhodamine B assay; type: functional; conditions: read-out: GI
# T47D = experiment: Antiproliferative activity against human T47D cells assessed as cell growth inhibition at 10 uM incubated for 24 hrs by sulforhodamine B assay; type: functional; conditions: read-out: GI
# MDA-MB-468 = experiment: Antiproliferative activity against human MDA-MB-468 cells assessed as cell growth inhibition at 10 uM incubated for 24 hrs by sulforhodamine B assay; type: functional; conditions: read-out: GI
# MDA-MB-231 = experiment: Antiproliferative activity against human MDA-MB-231 cells assessed as cell growth inhibition at 10 uM incubated for 24 hrs by sulforhodamine B assay; type: functional; conditions: read-out: GI
smiles,measurement,setting,value
COc1ccc(OC)c(-c2nc(SCC(=O)c3ccc(Br)cc3)nc(Nc3cccc(S(N)(=O)=O)c3)c2C#N)c1,Ki,Carbonic anhydrase 9,60.1 nM
same,inhibition of growth at 10 µM,SF-539,16.5%
same,inhibition of growth at 10 µM,CCRF-CEM,20.1%
same,inhibition of growth at 10 µM,HL-60,10.3%
same,inhibition of growth at 10 µM,K562,29.5%
same,inhibition of growth at 10 µM,MOLT-4,45.3%
same,inhibition of growth at 10 µM,RPMI-8226,18.5%
same,inhibition of growth at 10 µM,SR,30.5%
same,inhibition of growth at 10 µM,A549,26.7%
same,inhibition of growth at 10 µM,EKVX,18.4%
same,inhibition of growth at 10 µM,NCI-H226,15.2%
same,inhibition of growth at 10 µM,NCI-H23,7.31%
same,inhibition of growth at 10 µM,[1],14%
same,inhibition of growth at 10 µM,NCI-H460,22.5%
same,inhibition of growth at 10 µM,NCI-H522,5.79%
same,inhibition of growth at 10 µM,COLO 205,14.6%
same,inhibition of growth at 10 µM,HCT-116,27.9%
same,inhibition of growth at 10 µM,HCT-15,23.4%
same,inhibition of growth at 10 µM,HT-29,9.87%
same,inhibition of growth at 10 µM,KM12,11.8%
same,inhibition of growth at 10 µM,SW-620,13.9%
same,inhibition of growth at 10 µM,SF-268,23.7%
same,inhibition of growth at 10 µM,SF-295,13.3%
same,inhibition of growth at 10 µM,SNB-19,16.4%
same,inhibition of growth at 10 µM,SNB-75,23.1%
same,inhibition of growth at 10 µM,U-251,19.1%
same,inhibition of growth at 10 µM,LOX IMVI,16.6%
same,inhibition of growth at 10 µM,M14,6.53%
same,inhibition of growth at 10 µM,MDA-MB-435,15.4%
same,inhibition of growth at 10 µM,SK-MEL-5,5.18%
same,inhibition of growth at 10 µM,UACC-62,11.6%
same,inhibition of growth at 10 µM,IGROV-1,8.33%
same,inhibition of growth at 10 µM,OVCAR-3,22.4%
same,inhibition of growth at 10 µM,OVCAR-4,24.1%
same,inhibition of growth at 10 µM,OVCAR-8,14.2%
same,inhibition of growth at 10 µM,NCI/ADR-RES,8.77%
same,inhibition of growth at 10 µM,A498,22.5%
same,inhibition of growth at 10 µM,ACHN,20.2%
same,inhibition of growth at 10 µM,CAKI-1,52.1%
same,inhibition of growth at 10 µM,RXF 393,39.8%
same,inhibition of growth at 10 µM,SN12C,18.1%
same,inhibition of growth at 10 µM,UO-31,50.2%
same,inhibition of growth at 10 µM,PC-3,34.1%
same,inhibition of growth at 10 µM,DU-145,12.9%
same,inhibition of growth at 10 µM,MCF7,28.6%
same,inhibition of growth at 10 µM,Hs-578T,25.5%
same,inhibition of growth at 10 µM,T47D,23.9%
same,inhibition of growth at 10 µM,MDA-MB-468,15.4%
same,inhibition of growth at 10 µM,MDA-MB-231,23.8%
